The record followed here is patent US20110281854A1, “MORPHOLINE COMPOUNDS” (Pfizer Inc, priority 2010, published 2011).

One test concerns the target T1, MR (Homo sapiens, UniProt P08235).
T1 construct: expressed in transfected cells; host or cells: Huh7 human liver cells (ATCC), transient transfection with FuGENE 6
T1 sequence (P08235 726-964 limits assumed): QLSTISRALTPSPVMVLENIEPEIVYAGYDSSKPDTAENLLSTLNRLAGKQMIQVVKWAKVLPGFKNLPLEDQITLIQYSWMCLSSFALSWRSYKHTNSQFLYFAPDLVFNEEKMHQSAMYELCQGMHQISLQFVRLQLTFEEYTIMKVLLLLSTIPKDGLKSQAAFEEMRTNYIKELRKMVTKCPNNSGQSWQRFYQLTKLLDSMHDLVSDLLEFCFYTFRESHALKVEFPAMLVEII
The test can be described thus: Cell-based reporter assay (Gal4-MR-LBD luciferase, antagonist mode).
Conditions: not given
As to the method: To measure the ability of test compound in the present invention to modulate the activity of MR (agonize, antagonize, partially agonize, partially antagonize), bioassays were performed that measured the modulation of reporter gene expression. Cells were transiently transfected with a luciferase reporter gene under the control of a Gal4 response element (Gal4-RE-luc) and a plasmid containing the Gal4 DNA binding domain fused to the MR ligand binding domain (Gal4-MR-LBD). Agonists can bind to and activate the MR-LBD, which activates the expression of the luciferase reporter gene through interaction with the Gal4 response element. […] Antagonists can compete for binding to the NHR-LBD and decrease the agonist-induced transcriptional activity of the reporter gene. Therefore, measurement of luciferase activity allowed quantitative determinations of the reporter transcription in the presence of either agonists or competitive antagonists.
The final concentration of DMSO in the test plate was 0.5%. Following an overnight incubation with compound, 25 μL of Steady-Glow™ lysis buffer with luciferase substrate (Promega Corporation, E2550) was added directly to the cells. After a 30-minute incubation to completely lyse the cells, the microplates were counted in an Envision™ Multilabel Reader (Perkin Elmer) in single photon counting mode.
A general note: Reporter assays use an easily measured gene product as a stand-in for the process of interest.
In general, IC50 refers to the concentration that inhibits the measured activity by half. The compound `C[C@@H]1CN(c2ccc3c(n2)NC(=O)CO3)C[C@H](C)O1` [Example 25, 6-(cis-2,6-dimethylmorpholino)-2H-pyrido[3,2-b][1,4]oxazin-3(4H)-one] displayed an IC50 of 798 nM.

In the case of `O=C1COc2cnc(N3C[C@@H](C4CC4)OC[C@H]3c3ccccc3)nc2N1` [Example 44, 2-((2R,5R)-2-cyclopropyl-5-phenylmorpholino)-6H-pyrimido[5,4-b][1,4]oxazin-7(8H)-one], the IC50 is 1230 nM.

Take `C[C@@H]1CN(c2ccc3c(c2)NC(=O)CS3)[C@H](c2ccccc2)CO1` [Example 4, 6-((2R,5R)-2-methyl-5-phenylmorpholino)-2H-benzo[b][1,4]thiazin-3(4H)-one]: the IC50 worked out at 306 nM.

Take `C[C@@H]1CN(c2ccc3c(n2)NC(=O)CO3)C[C@@H](C)O1` [Example 54, 6-((2R,6R)-2,6-dimethylmorpholino)-2H-pyrido[3,2-b][1,4]oxazin-3(4H)-one]: the IC50 stood at 2800 nM.

For `C[C@@H]1CN(c2ccc3c(n2)NC(=O)CO3)[C@H](C)CO1` [Example 71, 6-((2R,5R)-2,5-dimethylmorpholino)-2H-pyrido[3,2-b][1,4]oxazin-3(4H)-one], the midpoint of inhibition, the IC50, lay at 1930 nM.

On to `C[C@@H]1CN(c2cc3c(cn2)OCC(=O)N3)[C@H](c2ccc(F)cc2)CO1` [Example 61, 7-((2R,5R)-5-(4-fluorophenyl)-2-methylmorpholino)-1H-pyrido[3,4-b][1,4]oxazin-2(3H)-one], for which the IC50 was found to be 646 nM.

For `C[C@H]1CN(c2ccc3c(n2)NC(=O)CO3)CCO1` (single isomer, unassigned) [Example 18], the IC50 turned out to be 2710 nM.

`O=C1COc2ccc(N3CC4(COC4)OC[C@H]3c3ccccc3)nc2N1` [Example 70, (R)-6-(7-phenyl-2,5-dioxa-8-azaspiro[3.5]nonan-8-yl)-2H-pyrido[3,2-b][1,4]oxazin-3(4H)-one]: the IC50 amounted to 628 nM.

For the compound `C[C@@H]1CN(c2ccc3c(n2)NCCO3)[C@H](c2ccccc2)CO1` [Example 6, 6-[(2R,5R)-2-methyl-5-phenylmorpholin-4-yl]-3,4-dihydro-2H-pyrido[3,2-b][1,4]oxazine], the IC50 came to 977 nM.

For `N#CC[C@@H]1CN(c2ccc3c(n2)NC(=O)CO3)[C@H](c2ccccc2)CO1` [Example 40, 2-((2R,5R)-4-(3-oxo-3,4-dihydro-2H-pyrido[3,2-b][1,4]oxazin-6-yl)-5-phenylmorpholin-2-yl)acetonitrile], the midpoint of inhibition, the IC50, lay at 97.9 nM.

With `C[C@@H]1CN(c2ccc3c(n2)NC(=O)CO3)[C@H](c2ccccc2F)CO1` (single isomer, unassigned) [Example 8], the IC50 worked out at 33.4 nM.

For the compound `C[C@@H]1CN(c2ccc3c(n2)NC(=O)CO3)[C@H](c2ccccc2Cl)CO1` (single isomer, unassigned) [Example 67], the midpoint of inhibition, the IC50, lay at 135 nM.

On to `O=C1COc2ccc(N3CCOC[C@@H]3c3ccccc3)cc2N1` [Example 41, (S)-6-(3-phenylmorpholino)-2H-benzo[b][1,4]oxazin-3(4H)-one], for which the IC50 came to 5230 nM.

In the case of `C[C@H]1CN(c2ccc3c(n2)NC(=O)CO3)[C@@H](c2ccccc2Cl)CO1` (racemic) [Example 66, (±)-6-(cis-5-(2-chlorophenyl)-2-methylmorpholino)-2H-pyrido[3,2-b][1,4]oxazin-3(4H)-one], the midpoint of inhibition, the IC50, lay at 451 nM.

In turn, `C[C@@H]1CN(c2ccc3oc(=O)[nH]c3c2)[C@H](c2ccccc2)CO1` [Example 45, 5-((2R,5R)-2-methyl-5-phenylmorpholino)benzo[d]oxazol-2(3H)-one] returned an IC50 of 349 nM.

`C[C@@H]1CN(c2ccc3c(c2)NS(=O)(=O)CO3)[C@H](c2ccccc2)CO1` [Example 47, 7-[(2R,5R)-2-methyl-5-phenylmorpholin-4-yl]-1H-4,2,1-benzoxathiazine 2,2-dioxide] yielded an IC50 of 1630 nM.

On to `Cc1nc(N2C[C@@H](C)OC[C@H]2c2ccccc2)nc2c1OCC(=O)N2` [Example 68, 4-methyl-2-((2R,5R)-2-methyl-5-phenylmorpholino)-6H-pyrimido[5,4-b][1,4]oxazin-7(8H)-one], for which the midpoint of inhibition, the IC50, lay at 2280 nM.

Take `C[C@H]1CN(c2cc3c(cn2)OCC(=O)N3)[C@@H](c2cccc(F)c2)CO1` (racemic) [Example 50, (±)-7-(cis-5-(3-fluorophenyl)-2-methylmorpholino)-1H-pyrido[3,4-b][1,4]oxazin-2(3H)-one]: half-maximal inhibition (IC50) was put at 272 nM.

Compound `C[C@@H]1CN(c2ccc3c(n2)NC(=O)CO3)[C@H](c2ccc(F)cc2F)CO1` [Example 52, 6-((2R,5R)-5-(2,4-difluorophenyl)-2-methylmorpholino)-2H-pyrido[3,2-b][1,4]oxazin-3(4H)-one] came in with an IC50 of 278 nM.

On to `Cc1ccc(C2(C)CN(c3ccc4c(c3)NC(=O)CO4)CCO2)cc1` (stereo not shown) [Example 74, 6-(2-methyl-2-p-tolylmorpholino)-2H-benzo[b][1,4]oxazin-3(4H)-one], for which the IC50 worked out at 3420 nM.

In turn, `C[C@@H]1CN(c2cc3c(cn2)OCC(=O)N3)[C@H](c2ccccc2)CO1` [Example 46, 7-((2R,5R)-2-methyl-5-phenylmorpholino)-1H-pyrido[3,4-b][1,4]oxazin-2(3H)-one] showed an IC50 of 252 nM.

Compound `C[C@@H]1CN(c2cnc3c(c2)NC(=O)CO3)[C@H](c2ccccc2)CO1` [Example 58, 7-((2R,5R)-2-methyl-5-phenylmorpholino)-1H-pyrido[2,3-b][1,4]oxazin-2(3H)-one] returned an IC50 of 2990 nM.

On to `O=C1COc2ccc(N3CCOC[C@H]3c3ccc(F)cc3)nc2N1` (single isomer, unassigned) [Example 14], for which the IC50 turned out to be 1100 nM.

`C[C@H]1CN(c2ncc3c(n2)NC(=O)CO3)[C@@H](c2cccc(F)c2)CO1` (racemic) [Example 51, (±)-2-(cis-5-(3-fluorophenyl)-2-methylmorpholino)-6H-pyrimido[5,4-b][1,4]oxazin-7(8H)-one] displayed an IC50 of 537 nM.

`C[C@@H]1CN(c2ccc3ncc(=O)[nH]c3c2)[C@H](c2ccccc2)CO1` [Example 3, 7-((2R,5R)-2-methyl-5-phenylmorpholino)quinoxalin-2(1H)-one] yielded an IC50 of 157 nM.

As for `O=C1COc2ccc(N3CCOC[C@H]3c3ccccc3)nc2N1` [Example 16, (R)-6-(3-phenylmorpholino)-2H-pyrido[3,2-b][1,4]oxazin-3(4H)-one], it took 1970 nM to reach half-maximal inhibition (IC50).

`C[C@H]1CN(c2ncc3c(n2)NC(=O)CO3)[C@@H](c2ccccc2F)CO1` (racemic) [Example 34, (±)-2-(cis-5-(2-fluorophenyl)-2-methylmorpholino)-6H-pyrimido[5,4-b][1,4]oxazin-7(8H)-one]: the IC50 came to 146 nM.

For `C[C@@H]1CN(c2ccc3c(n2)NC(=O)C(F)(F)O3)[C@H](c2ccccc2)CO1` [Example 30, 2,2-difluoro-6-((2R,5R)-2-methyl-5-phenylmorpholino)-2H-pyrido[3,2-b][1,4]oxazin-3(4H)-one], the IC50 is 9560 nM.

The compound `C[C@@H]1CN(c2ccc3c(n2)NC(=O)CO3)[C@H](c2ccccc2)[C@H](C)O1` [Example 69, 6-((2S,3R,6R)-2,6-dimethyl-3-phenylmorpholino)-2H-pyrido[3,2-b][1,4]oxazin-3(4H)-one] had an IC50 of 204 nM.

With `Cc1cc(N2C[C@@H](C)OC[C@H]2c2ccccc2)nc2c1OCC(=O)N2` [Example 5, 8-methyl-6-((2R,5R)-2-methyl-5-phenylmorpholino)-2H-pyrido[3,2-b][1,4]oxazin-3(4H)-one], the IC50 was 174 nM.

Consider `CC[C@@H]1CN(c2ccc3c(n2)NC(=O)CO3)C[C@H](CC)O1` [Example 57, 6-(cis-2,6-diethylmorpholino)-2H-pyrido[3,2-b][1,4]oxazin-3(4H)-one], for which the IC50 was determined as 4690 nM.

Regarding `CC1(c2ccccc2)CN(c2ccc3c(c2)NC(=O)CO3)CCO1` (stereo not shown) [Example 38, 6-(2-methyl-2-phenylmorpholino)-2H-benzo[b][1,4]oxazin-3(4H)-one], the IC50 was found to be 4970 nM.

Turning to `CC1CN(c2ccc3c(n2)NC(=O)CO3)CCO1` (racemic) [Example 17, 6-(2-methylmorpholino)-2H-pyrido[3,2-b][1,4]oxazin-3(4H)-one], the IC50 was 3050 nM.

`O=C1COc2ccc(N3CCOC4(CCCc5ccccc54)C3)cc2N1` (stereo not shown) [Example 72, 6-(3′,4′-dihydro-2′H-spiro[morpholine-2,1′-naphthalene]-4-yl)-2H-benzo[b][1,4]oxazin-3(4H)-one]: 8750 nM corresponded to half-maximal inhibition (IC50).

Compound `O=C1COc2ccc(N3CCOC4(CCOc5ccccc54)C3)cc2N1` (stereo not shown) [Example 73, 6-(spiro[chroman-4,2′-morpholine]-4′-yl)-2H-benzo[b][1,4]oxazin-3(4H)-one] displayed an IC50 of 6340 nM.

`C[C@H]1CN(c2ccc3c(n2)NC(=O)CO3)[C@@H](c2ccccc2F)CO1` (racemic) [Example 7, (±)-6-(cis-5-(2-fluorophenyl)-2-methylmorpholino)-2H-pyrido[3,2-b][1,4]oxazin-3(4H)-one]: half-maximal inhibition (IC50) was put at 63.6 nM.

The same test, now with this note: antagonist mode; decrease of EC80 aldosterone signal by 50%; Huh7 cells transfected with Gal4-MR-LBD and Gal4-RE-luc.
In turn, “6-((2S,5R)-2-(methoxymethyl)-5-phenylmorpholino)-2H-pyrido[3,2-b][1,4]oxazin-3(4H)-one [Example 49]” gave an IC50 of 358 nM.
